This is an account of results in patent US8088890B2, “Peptides and peptidomimetic compounds, the manufacturing thereof as well as their use for preparing a therapeutically and/or preventively active pharmaceutical composition” (Fibrex Medical Research & Development GmbH, priority 2008, dated 2012).

This experiment concerns RhoA. Description: thrombin induced RhoA activation in human umbilical vein endothelial cell (HUVEC) culture (Rho pull-down, Western blot). It is filed as cell-based. Particulars: 5 U/ml thrombin alone, 5 min. The procedure: The biological effect of the compounds was established in a model thrombin induced RhoA activation in human umbilical vein endothelial cell (HUVEC) culture.
HUVEC are grown to confluence under standard conditions. Before induction of Rho activity HUVEC were starved for 4 h by using IMDM (Gibco) without growth factor and serum supplements. After the starvation period 5 U/ml Thrombin (Calbiochem) or 5 U thrombin plus 50 μg/ml of test compound are added to the starvation medium for 1, 5 and 10 min. Active RhoA was isolated using Rho Assay Reagent from Upstate according to manufactures instructions. Isolates were separated on a 15% polyacrylamide gel and blotted on Nitrocellulose-Membrane (Bio-Rad). RhoA was detected by using Anti-Rho (-A, -B, -C), clone55 from Upstate (1:500).
In general terms: A western blot detects proteins with antibodies after separation by electrophoresis.

As to thrombin, the “Relative RhoA stimulation compared to unstimulated control” value is given as 6.2.
